Tests used:
human recombinant HDAC6 = biological target: T1, human recombinant HDAC6 (Homo sapiens, UniProt Q9UBN7); experiment: HDAC6 enzyme activity inhibition assay (HDAC Fluorimetric Drug Discovery Kit); type: biochemical; settings: 30° C. 60 minutes
T1 construct: purchased Calbiochem 382180
T1 sequence (Q9UBN7 1-1215): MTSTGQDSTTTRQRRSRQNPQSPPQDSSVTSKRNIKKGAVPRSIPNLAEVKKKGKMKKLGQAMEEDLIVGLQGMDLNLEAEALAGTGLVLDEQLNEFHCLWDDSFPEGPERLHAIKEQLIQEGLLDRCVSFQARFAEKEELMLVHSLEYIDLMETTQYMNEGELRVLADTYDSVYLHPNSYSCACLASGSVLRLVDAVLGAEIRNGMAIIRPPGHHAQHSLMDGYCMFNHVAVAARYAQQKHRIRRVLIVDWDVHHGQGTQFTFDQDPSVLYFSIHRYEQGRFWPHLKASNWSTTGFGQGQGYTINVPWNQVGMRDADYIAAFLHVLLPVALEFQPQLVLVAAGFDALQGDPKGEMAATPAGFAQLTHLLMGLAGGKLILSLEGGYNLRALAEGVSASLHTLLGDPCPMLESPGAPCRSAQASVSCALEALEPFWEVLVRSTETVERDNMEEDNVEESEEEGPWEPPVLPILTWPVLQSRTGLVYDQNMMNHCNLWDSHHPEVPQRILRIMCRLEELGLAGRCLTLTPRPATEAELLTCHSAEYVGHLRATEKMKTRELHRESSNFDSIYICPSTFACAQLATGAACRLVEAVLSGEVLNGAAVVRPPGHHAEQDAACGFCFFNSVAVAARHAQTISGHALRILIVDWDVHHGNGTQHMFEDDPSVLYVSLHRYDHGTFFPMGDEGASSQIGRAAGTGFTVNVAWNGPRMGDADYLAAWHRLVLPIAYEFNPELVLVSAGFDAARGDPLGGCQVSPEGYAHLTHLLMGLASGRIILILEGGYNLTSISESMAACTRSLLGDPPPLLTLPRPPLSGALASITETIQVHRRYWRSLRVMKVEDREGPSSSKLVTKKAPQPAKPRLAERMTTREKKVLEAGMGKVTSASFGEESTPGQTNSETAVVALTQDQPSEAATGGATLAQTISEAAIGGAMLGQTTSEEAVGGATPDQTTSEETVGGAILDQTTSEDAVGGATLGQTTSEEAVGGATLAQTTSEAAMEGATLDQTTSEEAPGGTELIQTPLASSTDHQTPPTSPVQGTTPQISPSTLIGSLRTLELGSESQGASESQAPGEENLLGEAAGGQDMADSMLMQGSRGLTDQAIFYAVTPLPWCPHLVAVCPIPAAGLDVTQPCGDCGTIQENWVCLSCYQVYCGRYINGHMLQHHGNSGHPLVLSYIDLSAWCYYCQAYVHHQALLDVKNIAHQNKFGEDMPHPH
Protocol: (§1) In order to examine the HDAC6 selectivity of the compounds of formula I of the present invention by HDAC1 and HDAC6 enzymatic activity inhibition assays, an experiment was performed using a conventional substance as a control.
(§2) HDAC enzyme activity was measured using a HDAC Fluorimetric Drug Discovery Kit (BML-AK511, 516, Enzo Life Science). For the HDAC1 enzyme activity test, human recombinant HDAC1 (BML-SE456) was used as an enzyme source, and Fluor de Lys®-“SIRT1 (BNL-KI177) was used as a substrate. A 5-fold dilution of the compound was seeded into a 96-well plate, and then 0.3 μg of the enzyme and 10 μM of the substrate were added to each well of the plate and allowed to react at 30° C. for 60 minutes. Then, Fluor de Lys®-Developer II (BML-KI176) was added thereto and allowed to react for 30 minutes, after which the fluorescence value (Ex 360, Em 460) was measured using a multi-plate reader (Flexstation 3, Molecular Device). The HDAC6 enzyme was tested using human recombinant HDAC6 (382180) (Calbiochem) according to the same protocol as the HDAC1 enzyme activity test method. Based on the resulting values, each IC50 value was calculated using GraphPad Prism4.0 program.

human recombinant HDAC1 = biological target: T2, human recombinant HDAC1 (Homo sapiens, UniProt Q13547); experiment: HDAC1 enzyme activity inhibition assay (HDAC Fluorimetric Drug Discovery Kit); type: biochemical; settings: human recombinant HDAC1, 10 μM substrate, 30° C. 60 minutes
T2 construct: purchased Enzo Life Science BML-SE456
Protocol: as §1, §2

T2 sequence (Q13547 whole entry): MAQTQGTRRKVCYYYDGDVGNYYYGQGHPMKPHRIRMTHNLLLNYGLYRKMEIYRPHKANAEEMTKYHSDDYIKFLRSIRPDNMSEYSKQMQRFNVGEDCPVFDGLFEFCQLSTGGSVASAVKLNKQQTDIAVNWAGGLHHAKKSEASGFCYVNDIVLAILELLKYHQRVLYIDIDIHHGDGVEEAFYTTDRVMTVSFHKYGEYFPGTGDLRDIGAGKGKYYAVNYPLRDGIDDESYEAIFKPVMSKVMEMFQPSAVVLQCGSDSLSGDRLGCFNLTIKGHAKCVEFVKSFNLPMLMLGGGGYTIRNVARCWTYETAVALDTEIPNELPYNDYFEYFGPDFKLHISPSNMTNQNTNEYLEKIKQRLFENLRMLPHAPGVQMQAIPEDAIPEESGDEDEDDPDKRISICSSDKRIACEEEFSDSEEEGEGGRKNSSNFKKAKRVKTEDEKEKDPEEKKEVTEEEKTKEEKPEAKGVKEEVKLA

IC50 (human recombinant HDAC6) [nM]	IC50 (human recombinant HDAC1) [nM]	SMILES
100	> 10000	Fc1ccc(C2(Nc3ncc(-c4nnc(C(F)(F)F)o4)cn3)CC2)cc1 [Compound 1712, N-(1-(4-fluorophenyl)cyclopropyl)-5-(5-(trifluoromethyl)-1,3,4-oxadiazol-2-yl)pyrimidin-2-amine]
151	> 10000	Fc1ccccc1C1(Nc2ncc(-c3nnc(C(F)(F)F)o3)cn2)CCC1 [Compound 1610, N-(1-(2-fluorophenyl)cyclobutyl)-5-(5-(trifluoromethyl)-1,3,4-oxadiazol-2-yl)pyrimidin-2-amine]
596	> 10000	FC(F)(F)c1cccc(C2(Nc3ncc(-c4nnc(C(F)(F)F)o4)cn3)CCC2)c1 [Compound 1670, 5-(5-(trifluoromethyl)-1,3,4-oxadiazol-2-yl)-N-(1-(3-(trifluoromethyl)phenyl)cyclobutyl)pyrimidin-2-amine]
132	> 10000	FC(F)c1nnc(-c2cnc(NC3(c4ccc(C(F)(F)F)cc4)CC3)nc2)o1 [Compound 1738, 5-(5-(difluoromethyl)-1,3,4-oxadiazol-2-yl)-N-(1-(4-(trifluoromethyl)phenyl)cyclopropyl)pyrimidin-2-amine]
168	> 10000	COc1cccc(C2(Nc3ncc(-c4nnc(C(F)(F)F)o4)cn3)CCC2)c1 [Compound 1606, N-(1-(3-methoxyphenyl)cyclobutyl)-5-(5-(trifluoromethyl)-1,3,4-oxadiazol-2-yl)pyrimidin-2-amine]
1740	> 10000	FC(F)(F)c1ccc(C2(Nc3ncc(-c4nnc(C(F)(F)F)o4)cn3)CCC2)cc1 [Compound 2044, 5-(5-(trifluoromethyl)-1,3,4-oxadiazol-2-yl)-N-(1-(4-(trifluoromethyl)phenyl)cyclobutyl)pyrimidin-2-amine]
455	> 10000	Fc1ccc(C2(Nc3ncc(-c4nnc(C(F)(F)F)o4)cn3)CCC2)cc1 [Compound 1612, N-(1-(4-fluorophenyl)cyclobutyl)-5-(5-(trifluoromethyl)-1,3,4-oxadiazol-2-yl)pyrimidin-2-amine]
219	> 10000	Fc1ccc(C2(Nc3ncc(-c4nnc(C(F)(F)F)o4)cn3)CC2)cc1Cl [Compound 1723, N-(1-(3-chloro-4-fluorophenyl)cyclopropyl)-5-(5-(trifluoromethyl)-1,3,4-oxadiazol-2-yl)pyrimidin-2-amine]

Further lines, the compound ahead of its results:

SMILES	IC50 (human recombinant HDAC6) [nM]	IC50 (human recombinant HDAC1) [nM]
Fc1ccc(C2(Nc3ncc(-c4nnc(C(F)F)o4)cn3)CCC2)cc1Cl [Compound 1817, N-(1-(3-chloro-4-fluorophenyl)cyclobutyl)-5-(5-(difluoromethyl)-1,3,4-oxadiazol-2-yl)pyrimidin-2-amine]	78	> 10000
Fc1ccc(C2(Nc3ncc(-c4nnc(C(F)F)o4)cn3)CCC2)cc1F [Compound 2045, 5-(5-(difluoromethyl)-1,3,4-oxadiazol-2-yl)-N-(1-(3,4-difluorophenyl)cyclobutyl)pyrimidin-2-amine]	61	> 10000
FC(F)(F)c1nnc(-c2cnc(NC3(c4ccccc4)CCCCC3)nc2)o1 [Compound 1582, N-(1-phenylcyclohexyl)-5-(5-(trifluoromethyl)-1,3,4-oxadiazol-2-yl)pyrimidin-2-amine]	1250	> 10000
Fc1ccc(Cl)cc1C1(Nc2ncc(-c3nnc(C(F)F)o3)cn2)CCC1 [Compound 1963, N-(1-(5-chloro-2-fluorophenyl)cyclobutyl)-5-(5-(difluoromethyl)-1,3,4-oxadiazol-2-yl)pyrimidin-2-amine]	89	> 10000
FC(F)c1nnc(-c2cnc(NC3(c4cccc(Cl)c4Cl)CCC3)nc2)o1 [Compound 1832, N-(1-(2,3-dichlorophenyl)cyclobutyl)-5-(5-(difluoromethyl)-1,3,4-oxadiazol-2-yl)pyrimidin-2-amine]	100	> 10000
CC(C)N1CCC(c2ccc(C3(Nc4ncc(-c5nnc(C(F)F)o5)cn4)CCC3)cc2)CC1 [Compound 2037, 5-(5-(difluoromethyl)-1,3,4-oxadiazol-2-yl)-N-(1-(4-(1-isopropylpiperidin-4-yl)phenyl)cyclobutyl)pyrimidin-2-amine]	397	> 10000
Fc1ccccc1C1(Nc2ncc(-c3nnc(C(F)F)o3)cn2)CC1 [Compound 1683, 5-(5-(difluoromethyl)-1,3,4-oxadiazol-2-yl)-N-(1-(2-fluorophenyl)cyclopropyl)pyrimidin-2-amine]	21	> 10000
Cc1ccccc1C1(Nc2ncc(-c3nnc(C(F)F)o3)cn2)CC1 [Compound 2055, 5-(5-(difluoromethyl)-1,3,4-oxadiazol-2-yl)-N-(1-(o-tolyl)cyclopropyl)pyrimidin-2-amine]	31	> 10000
FC(F)c1nnc(-c2cnc(NC3(c4ccc(Cl)c(Cl)c4)CCC3)nc2)o1 [Compound 1834, N-(1-(3,4-dichlorophenyl)cyclobutyl)-5-(5-(difluoromethyl)-1,3,4-oxadiazol-2-yl)pyrimidin-2-amine]	120	> 10000
FC(F)c1nnc(-c2cnc(NC3(c4ccsc4)CCC3)nc2)o1 [Compound 2038, 5-(5-(difluoromethyl)-1,3,4-oxadiazol-2-yl)-N-(1-(thiophen-3-yl)cyclobutyl)pyrimidin-2-amine]	111	> 10000
Fc1ccc(C2(Nc3ncc(-c4nnc(C(F)F)o4)cn3)CC2)cc1Cl [Compound 1722, N-(1-(3-chloro-4-fluorophenyl)cyclopropyl)-5-(5-(difluoromethyl)-1,3,4-oxadiazol-2-yl)pyrimidin-2-amine]	29	> 10000
FC(F)c1nnc(-c2cnc(NC3(c4ccc(Cl)cc4)CC3)nc2)o1 [Compound 2052, N-(1-(4-chlorophenyl)cyclopropyl)-5-(5-(difluoromethyl)-1,3,4-oxadiazol-2-yl)pyrimidin-2-amine]	75	> 10000
CCN1CCC(c2ccc(C3(Nc4ncc(-c5nnc(C(F)F)o5)cn4)CCC3)cc2)CC1 [Compound 2036, 5-(5-(difluoromethyl)-1,3,4-oxadiazol-2-yl)-N-(1-(4-(1-ethylpiperidin-4-yl)phenyl)cyclobutyl)pyrimidin-2-amine]	478	> 10000
Fc1cc(C2(Nc3ncc(-c4nnc(C(F)F)o4)cn3)CC2)ccc1Cl [Compound 2054, N-(1-(4-chloro-3-fluorophenyl)cyclopropyl)-5-(5-(difluoromethyl)-1,3,4-oxadiazol-2-yl)pyrimidin-2-amine]	83	> 10000
Fc1cccc(C2(Nc3ncc(-c4nnc(C(F)F)o4)cn3)CC2)c1 [Compound 1713, 5-(5-(difluoromethyl)-1,3,4-oxadiazol-2-yl)-N-(1-(3-fluorophenyl)cyclopropyl)pyrimidin-2-amine]	33	> 10000
COc1cccc(C2(Nc3ncc(-c4nnc(C(F)F)o4)cn3)CC2)c1 [Compound 2048, 5-(5-(difluoromethyl)-1,3,4-oxadiazol-2-yl)-N-(1-(3-methoxyphenyl)cyclopropyl)pyrimidin-2-amine]	63	> 10000
Fc1ccc(C2(Nc3ncc(-c4nnc(C(F)F)o4)cn3)CCC2)c(Cl)c1 [Compound 1959, N-(1-(2-chloro-4-fluorophenyl)cyclobutyl)-5-(5-(difluoromethyl)-1,3,4-oxadiazol-2-yl)pyrimidin-2-amine]	163	> 10000
